Values quoted from earlier work in patent US20050101642A1, “Chemical complex comprising a pyridine carboxy derivative and an H2 histamine receptor antagonist” (Astion Development ApS, priority 2000, published 2005).

Molecular target: poly(ADP-ribose)polymerase (Homo sapiens, UniProt P09874)
Sequence (P09874 whole entry): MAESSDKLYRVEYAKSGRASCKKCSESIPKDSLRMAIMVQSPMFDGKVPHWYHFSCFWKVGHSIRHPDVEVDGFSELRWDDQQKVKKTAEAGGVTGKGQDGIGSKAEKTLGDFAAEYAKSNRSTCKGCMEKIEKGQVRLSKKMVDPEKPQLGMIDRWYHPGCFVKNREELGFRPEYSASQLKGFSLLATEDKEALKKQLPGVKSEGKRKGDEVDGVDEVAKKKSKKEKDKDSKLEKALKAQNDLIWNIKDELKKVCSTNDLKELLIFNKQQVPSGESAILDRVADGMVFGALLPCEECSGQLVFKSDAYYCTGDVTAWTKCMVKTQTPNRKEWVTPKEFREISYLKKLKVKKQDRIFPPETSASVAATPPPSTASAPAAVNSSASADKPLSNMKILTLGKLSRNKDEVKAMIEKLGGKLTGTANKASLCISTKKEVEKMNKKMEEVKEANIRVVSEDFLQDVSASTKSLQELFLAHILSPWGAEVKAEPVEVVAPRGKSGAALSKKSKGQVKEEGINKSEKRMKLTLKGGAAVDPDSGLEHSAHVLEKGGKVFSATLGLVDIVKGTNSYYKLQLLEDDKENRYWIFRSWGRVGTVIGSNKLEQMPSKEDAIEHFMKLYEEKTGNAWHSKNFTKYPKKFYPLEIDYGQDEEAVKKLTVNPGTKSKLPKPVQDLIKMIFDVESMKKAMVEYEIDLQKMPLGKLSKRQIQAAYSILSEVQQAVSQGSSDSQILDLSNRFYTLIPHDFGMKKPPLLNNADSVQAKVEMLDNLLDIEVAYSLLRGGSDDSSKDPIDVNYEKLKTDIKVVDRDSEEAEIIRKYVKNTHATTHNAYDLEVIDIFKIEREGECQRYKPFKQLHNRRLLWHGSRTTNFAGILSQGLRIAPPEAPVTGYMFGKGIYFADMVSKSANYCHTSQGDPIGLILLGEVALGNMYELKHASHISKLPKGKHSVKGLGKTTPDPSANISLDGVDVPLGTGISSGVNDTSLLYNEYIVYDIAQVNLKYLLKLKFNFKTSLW

Which “inhibition of poly(ADP-ribose)polymerase” value does the source give for `NC(=O)c1cccnc1` [Niacinamide] here?
The value was “potent inhibitor”.
